According to US9376469B2, “Proteolytically resistant hydrogen bond surrogate helices” (New York University, priority 2011, dated 2016):
Square brackets hold non-standard residues; d marks the D form. Peptide text beside a SMILES is read from it. * marks the point of attachment. X1 = NC(=O)CC[C@@H]1NC(=O)CCC=CCN(CCC(=O)*)C(=O)[C@H](CCC(=O)O)NC1=O; β3hL = CC(C)C[C@H](N)CC(=O)O; β3hA = C[C@H](N)CC(=O)O

Tests used:
[1] = molecular target: T1, His6-tagged Mdm2 (25-117) (Homo sapiens, UniProt Q00987); test: Fluorescence polarization-based competitive binding assay with Flu-p53; details: for Kd: read-out: KD (binding constant for His6-Mdm2); for Binding to Mdm2, result in words: negative control peptides
T1 construct: made in house; host or cells: E. coli BL21 DE3 pLySS, pET-14B vector

[2] = test system: serum proteases; test: Serum stability assay; assay type: in vitro ADME; details: 25% human serum in RPMI, 37° C., after 24 hours, LCMS
Procedure: Peptides and 50% human serum (Sigma, St Louis, Mo., USA; product number S7023) in RPMI were temperature-equilibrated to 37° C. for 15 minutes prior to the experiments. […] After 0, 2, 5, 10, and 24 hours, three samples of each peptide (50 μl) were taken, and were precipitated by the addition of 100 μl of 6% aqueous trichloroacetic acid. The samples were cooled to 4° C. for 20 minutes and centrifuged (14000 rpm for 5 minutes). The supernatants were immediately frozen on dry ice and 100 μl of each were analyzed on an Agilent LCMS using 0.1% formic acid in water (eluent A) and 0.1% formic acid in acetonitrile (eluent B). The level of intact peptide was determined by comparing the LC % area of the peptide peak at different time points to the % area of the O-hour peak.
Human serum contains a myriad of proteases and provides a gauge for the stability of compounds under physiological conditions.

[3] = test system: trypsin; test: Trypsin digestion assay; assay type: in vitro ADME; details: 1 ng/μL trypsin, 4° C.
Procedure: A solution containing 500 μM of tryptophan, 1 ng/μL of trypsin, and 500 μM of peptide in PBS was incubated at 4° C. At the indicated time intervals, 100 μL of this solution was quenched with 100 μL of 2% aqueous TFA, and then injected into reversed-phase HPLC to analyze the change in the area of the peptide peak compared to the area of an internal control (tryptophan).
Trypsin was chosen as the model proteolytic enzyme because the p53 activation domain contains a lysine group near the C-terminus, providing a cleavage site for this enzyme. […] The rate of peptide digestion was measured using an LCMS assay with tryptophan as an internal control.

[4] = test system: HeLa cells; test: Cellular uptake assay, confocal microscopy of live cells; assay type: cell-based; details: 15 μM fluorescein-tagged peptide, 2 hours, 37° C.
Procedure: HeLa cells were cultured to sub-confluence in DMEM (Invitrogen) supplemented with 10% (v/v) fetal bovine serum (FBS) at 37° C. in a humidified incubator containing 5% CO2. Cells (˜1×10^4 cells/ml) in DMEM supplemented with 10% FBS were plated onto a 24-well culture plate containing microscope cover slides. After overnight incubation, cells were washed three times with 1 ml HBSS (Invitrogen) and supplemented with 15 μM fluorescein-tagged peptides in 1 mM PBS (pH 7.4) to a total volume of 500 μl. Peptide treated cells were incubated for another 2 hours at 37° C., washed five times with 500 μl HBSS, and imaged directly on a Leica TSC SP 2 laser scanning confocal microscope. Twenty serial 1 μm Z-section images through the middle of the cells were collected and analyzed.
It is likely that cellular uptake of HBS helices will have sequence dependence; however, it is noteworthy that peptides with an overall negative charge are internalized (Patgiri et al., Nat. Chem. Biol. 7:585 (2011), which is hereby incorporated by reference in its entirety), as positive charge is often associated with enhanced cellular uptake of peptides (Henchey et al., J. Am. Chem. Soc'y 132:941 (2010); Bernal et al., J. Am. Chem. Soc'y 129:2456 (2007); Wender et al., Proc. Nat'l Acad. Sci. USA 97:13003 (2000), each of which is hereby incorporated by reference in its entirety).

Compound | Kd [1] | Binding to Mdm2, result in words [1] | other results
CC(=O)N[C@@H](CCC(N)=O)C(=O)N[C@H]1CCC[C@@H]1C(=O)NCC(=O)N[C@@H](Cc1ccccc1)C(=O)N[C@@H](CO)C(=O)N[C@H]1CCC[C@@H]1C(=O)N[C@@H](CC(C)C)C(=O)N[C@@H](Cc1c[nH]c2ccccc12)C(=O)N[C@@H](CCCCN)C(=O)N[C@H]1CCC[C@@H]1C(=O)N[C@@H](CC(C)C)C(=O)N[C@@H](CO)C(N)=O [Peptide 4, Ac-Q(ACPC)GFS(ACPC)LWK(ACPC)LS-NH2 (SEQ ID NO: 8)] | 0.43 ± 0.086 µM | – | Affinity for Mdm2 as compared to peptide 1 ([1]; relative to peptide 1): roughly five-fold lower affinity
CC(C)C[C@@H](CC(=O)N[C@@H](CC(C)C)C(=O)N[C@@H](CO)C(N)=O)NC(=O)[C@H](CCCCN)NC(=O)[C@H](Cc1c[nH]c2ccccc12)NC(=O)[C@H](CC(C)C)NC(=O)C[C@H](CC(=O)O)NC(=O)[C@H](CO)NC(=O)[C@H](Cc1ccccc1)NC(=O)CN1CC=CCCC(=O)N[C@@H](CCC(N)=O)C(=O)N[C@@H](CCC(=O)O)CC1=O [Peptide 1, XQeG*FSdLWKILS-NH2 (SEQ ID NO: 5)] | – | – | Stability in human serum, in words [2]: remained unperturbed; metabolised at 24 h, 500 μM ([3]; trypsin (isolated protease) in PBS, after 24 hours, 500 μM peptide, read-out: Peptide cleaved by trypsin): ~20%
CC(C)C[C@@H](CC(=O)N[C@@H](Cc1c[nH]c2ccccc12)C(=O)N[C@@H](CCCCN)C(=O)N[C@@H](CC(C)C)C(=O)N[C@@H](C)CC(=O)N[C@@H](CO)C(N)=O)NC(=O)[C@H](CC(=O)O)NC(=O)[C@H](CO)NC(=O)[C@H](C)NC(=O)CCN1CC=CCCC(=O)N[C@@H](CCC(N)=O)C(=O)N[C@@H](CCC(=O)O)C1=O [Peptide 4-9, XQEg*ASDIWKLaS-NH2 (SEQ ID NO: 16)] (X1-ASD[β3hL]WKL[β3hA]S-NH2) | > 1000 µM | does not bind with any appreciable binding affinity | –
CC(=O)N[C@@H](CCC(N)=O)C(=O)N[C@@H](CCC(=O)O)CC(=O)NCC(=O)N[C@@H](Cc1ccccc1)C(=O)N[C@@H](CO)C(=O)N[C@@H](CC(=O)O)CC(=O)N[C@@H](CC(C)C)C(=O)N[C@@H](Cc1c[nH]c2ccccc12)C(=O)N[C@@H](CCCCN)C(=O)N[C@H](CC(=O)N[C@@H](CC(C)C)C(=O)N[C@@H](CO)C(N)=O)CC(C)C [Peptide 3, Ac-QeGFSdLWKILS-NH2 (SEQ ID NO: 7)] | – | – | Stability toward trypsin degradation, in words ([3]; PBS): stable toward degradation
XQeG*FSdLWKILSC^Flu-NH2 (SEQ ID NO: 11) [Flu-1] | – | – | Cellular uptake (intracellular fluorescence) [4]: intense intracellular fluorescence
CC(C)C[C@@H](CC(=O)N[C@@H](C)C(=O)N[C@@H](CO)C(N)=O)NC(=O)[C@H](CCCCN)NC(=O)[C@H](Cc1c[nH]c2ccccc12)NC(=O)[C@H](CC(C)C)NC(=O)C[C@H](CC(=O)O)NC(=O)[C@H](CO)NC(=O)[C@H](C)NC(=O)CN1CC=CCCC(=O)N[C@@H](CCC(N)=O)C(=O)N[C@@H](CCC(=O)O)CC1=O [Peptide 5, XQeG*ASdLWKIAS-NH2 (SEQ ID NO: 9)] | > 1000 µM | does not bind to Mdm2 with measurable affinity | –
